Assay: xn = mol fraction of the nth substance listed
Conditions: for electrical conductivity: frequency 0.01 MHz

CC1CCC(=O)O1 (stereo unspecified) + CCCC[n+]1ccn(C)c1.O=S(=O)([N-]S(=O)(=O)C(F)(F)F)C(F)(F)F
electrical conductivity [S/m], 100 kPa
Conditions | 293.15 K | 298.15 K | 303.15 K | 308.15 K | 313.15 K | 318.15 K | 323.15 K
x2 = 0.0505 | 0.666 | 0.719 | 0.785 | 0.849 | 0.914 | 0.986 | 1.05
x2 = 0.1001 | 1.01 | 1.11 | 1.21 | 1.31 | 1.42 | 1.54 | 1.67
x2 = 0.1492 | 1.11 | 1.21 | 1.32 | 1.45 | 1.58 | 1.73 | 1.87
x2 = 0.1998 | 1.1 | 1.21 | 1.34 | 1.48 | 1.62 | 1.77 | 1.92
x2 = 0.3008 | 0.993 | 1.1 | 1.22 | 1.36 | 1.5 | 1.64 | 1.79
x2 = 0.4031 | 0.816 | 0.913 | 1.02 | 1.13 | 1.25 | 1.38 | 1.51
x2 = 0.5048 | 0.677 | 0.762 | 0.854 | 0.96 | 1.07 | 1.19 | 1.31
x2 = 0.6031 | 0.561 | 0.636 | 0.72 | 0.818 | 0.918 | 1.03 | 1.16
x2 = 0.6973 | 0.476 | 0.544 | 0.623 | 0.712 | 0.81 | 0.918 | 1.03
x2 = 0.7994 | 0.394 | 0.457 | 0.531 | 0.612 | 0.703 | 0.807 | 0.919
x2 = 0.8711 | 0.364 | 0.425 | 0.498 | 0.575 | 0.663 | 0.763 | 0.869

CN(C)c1ccccc1 + CCCC[n+]1ccn(C)c1.O=S(=O)([N-]S(=O)(=O)C(F)(F)F)C(F)(F)F
viscosity [mPa·s], 100 kPa
Conditions | 288.15 K | 293.15 K | 298.15 K | 303.15 K | 308.15 K | 313.15 K | 318.15 K | 323.15 K | 328.15 K | 333.15 K
x1 = 0.1 | 65.1 | 51.3 | 41.3 | 34 | 28.3 | 23.6 | 20.23 | 17.37 | 15.09 | 13.19
x1 = 0.2 | 52.2 | 41.4 | 33.6 | 28 | 23.4 | 19.61 | 16.9 | 14.6 | 12.74 | 11.19
x1 = 0.2993 | 40.5 | 32.4 | 26.6 | 22.26 | 18.75 | 15.88 | 13.77 | 11.97 | 10.49 | 9.29
x1 = 0.4001 | 30.4 | 24.6 | 20.44 | 17.16 | 14.66 | 12.5 | 10.93 | 9.56 | 8.44 | 7.52
x1 = 0.5005 | 21.72 | 17.79 | 15.06 | 12.73 | 10.96 | 9.44 | 8.34 | 7.36 | 6.55 | 5.86
x1 = 0.5993 | 15.08 | 12.54 | 10.77 | 9.21 | 8.02 | 7 | 6.21 | 5.53 | 4.98 | 4.49
x1 = 0.7 | 9.89 | 8.36 | 7.29 | 6.34 | 5.58 | 4.93 | 4.42 | 3.98 | 3.62 | 3.29
x1 = 0.7996 | 6.07 | 5.25 | 4.64 | 4.12 | 3.68 | 3.3 | 3 | 2.74 | 2.5 | 2.3
x1 = 0.8997 | 3.33 | 2.96 | 2.67 | 2.42 | 2.205 | 2.028 | 1.858 | 1.716 | 1.591 | 1.485
x1 = 1 | 1.536 | 1.415 | 1.302 | 1.206 | 1.123 | 1.056 | 0.981 | 0.92 | 0.865 | 0.819

COC(=O)OC + CCCC[n+]1ccn(C)c1.O=S(=O)([N-]S(=O)(=O)C(F)(F)F)C(F)(F)F
viscosity [mPa·s], 101.3 kPa
Conditions | 288.15 K | 293.15 K | 298.15 K | 303.15 K | 308.15 K | 313.15 K
x2 = 0 | 0.668 | 0.628 | 0.588 | 0.553 | 0.524 | –
x2 = 0.003644 | 0.699 | 0.653 | 0.611 | 0.575 | 0.541 | 0.511
x2 = 0.004269 | 0.706 | 0.659 | 0.616 | 0.58 | 0.545 | 0.515
x2 = 0.005082 | 0.715 | 0.667 | 0.624 | 0.586 | 0.551 | 0.52
x2 = 0.005901 | 0.722 | 0.674 | 0.631 | 0.593 | 0.557 | 0.525
x2 = 0.00751 | 0.741 | 0.69 | 0.646 | 0.606 | 0.57 | 0.537
x2 = 0.008724 | 0.746 | 0.695 | 0.651 | 0.61 | 0.575 | 0.541
x2 = 0.009626 | 0.749 | 0.7 | 0.657 | 0.617 | 0.583 | 0.549
x2 = 0.01106 | 0.781 | 0.727 | 0.678 | 0.636 | 0.597 | 0.562
x2 = 0.012 | 0.792 | 0.737 | 0.687 | 0.644 | 0.605 | 0.57
x2 = 0.01269 | 0.801 | 0.744 | 0.695 | 0.651 | 0.61 | 0.576
x2 = 0.01439 | 0.817 | 0.759 | 0.708 | 0.663 | 0.621 | 0.586
x2 = 0.01534 | 0.827 | 0.768 | 0.717 | 0.671 | 0.629 | 0.592
x2 = 0.01537 | 0.827 | 0.768 | 0.717 | 0.671 | 0.629 | 0.592
x2 = 0.01726 | 0.847 | 0.786 | 0.734 | 0.686 | 0.643 | 0.604
x2 = 0.01986 | 0.874 | 0.811 | 0.755 | 0.706 | 0.662 | 0.621
x2 = 0.02243 | 0.902 | 0.836 | 0.778 | 0.728 | 0.681 | 0.641
x2 = 0.02369 | 0.914 | 0.847 | 0.788 | 0.736 | 0.689 | 0.648
x2 = 0.02616 | 0.937 | 0.869 | 0.808 | 0.754 | 0.706 | 0.663
x2 = 0.02694 | 0.945 | 0.876 | 0.814 | 0.759 | 0.711 | 0.668
x2 = 0.02906 | 0.968 | 0.897 | 0.834 | 0.778 | 0.728 | 0.683
x2 = 0.03392 | 1.016 | 0.94 | 0.873 | 0.814 | 0.76 | 0.714
x2 = 0.03978 | 1.072 | 0.991 | 0.921 | 0.857 | 0.802 | 0.751
x2 = 0.04295 | 1.102 | 1.019 | 0.945 | 0.88 | 0.822 | 0.77
x2 = 0.04638 | 1.134 | 1.048 | 0.971 | 0.904 | 0.845 | 0.791

N + CCCC[n+]1ccn(C)c1.O=S(=O)([N-]S(=O)(=O)C(F)(F)F)C(F)(F)F
313.2 K, 101 kPa
Conditions | viscosity [mPa·s]
x2 = 0.7997 | 20.1
x2 = 0.8338 | 21.7
x2 = 0.8696 | 22
x2 = 0.9099 | 23.1
x2 = 0.9541 | 25.1

c1ccsc1 + CCCC[n+]1ccn(C)c1.O=S(=O)([N-]S(=O)(=O)C(F)(F)F)C(F)(F)F
viscosity [mPa·s], 100 kPa
Conditions | x1 = 0.089 | x1 = 0.276 | x1 = 0.561 | x1 = 1
298.15 K | – | – | 14.73 | 0.655
308.15 K | 29 | 18.8 | – | –

CN(C)c1ccccc1 + CCCC[n+]1ccn(C)c1.O=S(=O)([O-])C(F)(F)F
100 kPa
Conditions | viscosity [mPa·s]
288.15 K, x1 = 0.2998 | 54
288.15 K, x1 = 0.397 | 39.3
288.15 K, x1 = 0.6997 | 10.05
288.15 K, x1 = 1 | 1.536
293.15 K, x1 = 1 | 1.415
298.15 K, x1 = 0.397 | 25.9
298.15 K, x1 = 0.8945 | 2.63
308.15 K, x1 = 0.2 | 30.7
313.15 K, x1 = 0.2 | 25.2
313.15 K, x1 = 0.6997 | 5.03
318.15 K, x1 = 0.1 | 27.1
318.15 K, x1 = 0.6997 | 4.54
318.15 K, x1 = 0.8945 | 1.828
323.15 K, x1 = 1 | 0.92
328.15 K, x1 = 0.1 | 19.6
328.15 K, x1 = 0.8945 | 1.569
333.15 K, x1 = 0.1 | 16.91
333.15 K, x1 = 0.5045 | 6.71
333.15 K, x1 = 0.8945 | 1.463

N[C@@H](Cc1ccccc1)C(=O)O + CCCC[n+]1ccn(C)c1.[Br-] + O
viscosity [mPa·s], 101.3 kPa
Conditions | x1 = 0.0003605, x2 = 0 | x1 = 0.0007251, x2 = 0 | x1 = 0.001079, x2 = 0 | x1 = 0.001441, x2 = 0 | x1 = 0.001797, x2 = 0 | x1 = 0.00216, x2 = 0 | x1 = 0.002516, x2 = 0
293.15 K | 1.01 | 1.02 | 1.03 | 1.05 | 1.06 | 1.08 | 1.09
298.15 K | 0.8 | 0.81 | 0.83 | 0.84 | 0.85 | 0.87 | 0.88
303.15 K | 0.71 | 0.72 | 0.74 | 0.75 | 0.76 | 0.78 | 0.79
308.15 K | 0.63 | 0.64 | 0.66 | 0.67 | 0.68 | 0.7 | 0.71
313.15 K | 0.57 | 0.58 | 0.59 | 0.6 | 0.62 | 0.63 | 0.64

O=C1O[C@H]([C@@H](O)CO)C(O)=C1O + CCCC[n+]1ccn(C)c1.[Br-] + O
viscosity [mPa·s], 100 kPa
Conditions | 293.15 K | 298.15 K | 303.15 K | 308.15 K | 313.15 K | 318.15 K
x1 = 0.0003765, x2 = 0 | 1.008 | 0.898 | 0.804 | 0.725 | 0.66 | 0.607
x1 = 0.0007293, x2 = 0 | 1.013 | 0.903 | 0.809 | 0.73 | 0.665 | 0.612
x1 = 0.001087, x2 = 0 | 1.017 | 0.908 | 0.814 | 0.735 | 0.67 | 0.617
x1 = 0.001456, x2 = 0 | 1.023 | 0.914 | 0.819 | 0.74 | 0.674 | 0.621
x1 = 0.001827, x2 = 0 | 1.028 | 0.919 | 0.825 | 0.745 | 0.679 | 0.626
x1 = 0.002192, x2 = 0 | 1.035 | 0.924 | 0.831 | 0.75 | 0.684 | 0.632

COC(=O)OC + CCCCn1cc[n+](C)c1C.O=S(=O)([N-]S(=O)(=O)C(F)(F)F)C(F)(F)F
101.3 kPa, x2 = 0
Conditions | viscosity [mPa·s]
288.15 K | 0.668
293.15 K | 0.628
298.15 K | 0.588
303.15 K | 0.553
308.15 K | 0.524
313.15 K | 0.498

Reference: the CheMixHub ionic liquid set
